Source: patent US9017722B2, “Pharmaceutical composition containing as an active ingredient 5-methyl-1-phenyl-2-(1H)-pyridone” (Intermune, Inc., priority 2001, dated 2015)

Test: Light exposure testing (color difference after light irradiation)
Format: physicochemical
Settings: for Discoloration / Color difference (ΔE): D65 fluorescent lamp, 3570 Lx, exposure dose 1,200,000 Lx·hr, 25° C., room humidity; for Color difference (ΔE): CIELAB, reflected ray measurement; for light-stability (conclusion from Table 2): light exposure test, 1,200,000 Lx·hr
Experimental: Light exposure test of pirfenidone was carried out under the following condition, using “drug substance” obtained by packing 500 mg of milled pirfenidone drug substance in a heat-sealed transparent SP (Striped Package), “compressed drug substance” obtained by statically compressing 300 mg of milled pirfenidone drug substance, “the plain tablets” obtained in the above Example 1, and “the coated tablets” obtained in the above Example 1. […]
light irradiation apparatus: light stability test apparatus (LTL400-D5) (Nagano Science Equipment Mfg. Co., Ltd.) fluorescent light: D65 fluorescent lamp for color comparing and test temperature and humidity: 25° C., room humidity illumination intensity: 3570 Lx […]
coloring difference measure apparatus: Color analyzer TC-1800MK-II measurement method: reflected ray measurement color specification system: CIELAB measurement condition: second degree visual field

Structure (SMILES): Cc1ccc(=O)n(-c2ccccc2)c1 [Compressed drug substance, 5-Methyl-1-phenyl-2-(1H)-pyridone]
- Discoloration: remarkable
- Color difference (ΔE): 3.62
- light-stability (conclusion from Table 2) (listed as pirfenidone compressed drug substance): have a problem in light-stability

Structure (SMILES): Cc1ccc(=O)n(-c2ccccc2)c1 [Drug substance, 5-Methyl-1-phenyl-2-(1H)-pyridone]
- Discoloration: slight
- Color difference (ΔE): 0.73
- light-stability (conclusion from Table 2) (listed as pirfenidone drug substance): remarkable color difference was not observed
